ChEMBL document CHEMBL1909046, “DrugMatrix in vitro pharmacology data”

How the values were obtained:
Substance-K receptor = molecular target: T1, Substance-K receptor (Homo sapiens, UniProt P21452); format: cell membranes, CHO, Membrane; conditions: cho; further: in other assays of this panel Not Active means under 50% inhibition at 10 µM
T1 sequence (P21452 whole entry): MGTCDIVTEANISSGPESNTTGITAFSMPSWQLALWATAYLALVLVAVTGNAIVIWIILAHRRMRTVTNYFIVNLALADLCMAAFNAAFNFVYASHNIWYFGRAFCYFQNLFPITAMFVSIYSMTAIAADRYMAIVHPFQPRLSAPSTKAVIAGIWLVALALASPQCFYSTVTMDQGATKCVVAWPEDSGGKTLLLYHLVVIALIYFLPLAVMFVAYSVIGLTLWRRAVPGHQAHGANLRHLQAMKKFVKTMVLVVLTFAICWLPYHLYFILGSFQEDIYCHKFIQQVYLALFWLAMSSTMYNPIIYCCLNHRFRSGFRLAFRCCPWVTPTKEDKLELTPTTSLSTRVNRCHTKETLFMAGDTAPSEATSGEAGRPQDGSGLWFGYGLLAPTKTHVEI

Melanocortin receptor 5 = Melanocortin receptor 5 (Homo sapiens, UniProt P33032); format: cell membranes, HEK293, Membrane; conditions: hek293; further: in other assays of this panel Not Active means under 50% inhibition at 10 µM
[1] = molecular target: Voltage-gated inwardly rectifying potassium channel KCNH2 (Homo sapiens, UniProt Q12809); conditions: hek293; further: in other assays of this panel Not Active means under 50% inhibition at 10 µM
[2] = DRUGMATRIX: Phosphodiesterase PDE4 enzyme inhibition (substrate: [3H]cAMP + cAMP); conditions: u-937; Not Active = under 50% inhibition at 10 µM
[3] = DRUGMATRIX: Sodium/nucleoside co-transporter radioligand binding (ligand: nitrobenzylthioinosine); format: cell membranes, Cavia porcellus, Dunkin-Hartley, Cerebral cortex, Membrane; conditions: Not Active = under 50% inhibition at 10 µM
Insulin receptor = Insulin receptor (Rattus norvegicus, UniProt P15127); format: cell membranes, Wistar, Liver, Membrane; further: in other assays of this panel Not Active means under 50% inhibition at 10 µM
Interstitial collagenase = molecular target: T2, Interstitial collagenase (Homo sapiens, UniProt P03956); test: biochemical; format: tissue-based, Rheumatoid synovial fibroblasts
T2 sequence (P03956 whole entry): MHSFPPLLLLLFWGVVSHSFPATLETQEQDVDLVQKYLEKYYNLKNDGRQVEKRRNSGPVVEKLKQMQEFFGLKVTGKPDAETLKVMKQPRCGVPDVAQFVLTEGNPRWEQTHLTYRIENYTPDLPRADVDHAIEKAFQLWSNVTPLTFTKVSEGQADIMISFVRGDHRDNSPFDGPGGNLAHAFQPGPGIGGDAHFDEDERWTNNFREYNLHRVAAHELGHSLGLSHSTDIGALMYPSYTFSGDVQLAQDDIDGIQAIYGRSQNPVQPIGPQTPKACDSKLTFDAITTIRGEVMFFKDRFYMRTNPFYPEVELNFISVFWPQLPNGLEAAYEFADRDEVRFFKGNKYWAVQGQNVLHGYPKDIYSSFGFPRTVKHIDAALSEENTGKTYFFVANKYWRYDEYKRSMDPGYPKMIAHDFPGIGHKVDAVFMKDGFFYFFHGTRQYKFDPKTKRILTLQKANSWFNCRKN

Sequence of Melanocortin receptor 5 (P33032 whole entry): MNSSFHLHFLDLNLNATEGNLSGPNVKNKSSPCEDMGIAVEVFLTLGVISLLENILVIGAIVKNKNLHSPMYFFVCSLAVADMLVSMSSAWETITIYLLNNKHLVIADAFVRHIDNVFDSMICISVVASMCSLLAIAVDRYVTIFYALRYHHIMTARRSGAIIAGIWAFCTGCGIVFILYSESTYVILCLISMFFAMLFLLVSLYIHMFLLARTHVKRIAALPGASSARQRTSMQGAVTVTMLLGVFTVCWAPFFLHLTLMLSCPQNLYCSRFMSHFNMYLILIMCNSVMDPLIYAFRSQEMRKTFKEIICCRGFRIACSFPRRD
Sequence of Insulin receptor (P15127 27-759 limits assumed): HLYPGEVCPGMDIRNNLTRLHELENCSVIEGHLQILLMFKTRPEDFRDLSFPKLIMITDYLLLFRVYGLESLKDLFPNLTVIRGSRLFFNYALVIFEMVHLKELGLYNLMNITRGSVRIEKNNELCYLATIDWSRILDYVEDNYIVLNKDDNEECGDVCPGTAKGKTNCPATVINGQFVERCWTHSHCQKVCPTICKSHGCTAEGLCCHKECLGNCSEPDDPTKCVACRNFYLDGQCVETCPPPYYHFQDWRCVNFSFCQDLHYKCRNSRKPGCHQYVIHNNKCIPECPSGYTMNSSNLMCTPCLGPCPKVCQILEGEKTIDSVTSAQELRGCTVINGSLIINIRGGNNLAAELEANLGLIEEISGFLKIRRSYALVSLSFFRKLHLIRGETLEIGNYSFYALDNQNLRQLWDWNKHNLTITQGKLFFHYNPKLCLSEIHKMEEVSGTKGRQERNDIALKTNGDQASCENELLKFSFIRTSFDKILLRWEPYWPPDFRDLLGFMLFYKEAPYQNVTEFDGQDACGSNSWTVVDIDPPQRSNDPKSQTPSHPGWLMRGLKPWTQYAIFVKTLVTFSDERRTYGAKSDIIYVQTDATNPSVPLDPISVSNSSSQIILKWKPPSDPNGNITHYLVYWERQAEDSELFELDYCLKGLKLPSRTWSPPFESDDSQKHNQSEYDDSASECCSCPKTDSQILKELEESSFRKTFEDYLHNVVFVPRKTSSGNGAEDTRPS
Sequence of Insulin receptor (P15127 764-1383 limits assumed): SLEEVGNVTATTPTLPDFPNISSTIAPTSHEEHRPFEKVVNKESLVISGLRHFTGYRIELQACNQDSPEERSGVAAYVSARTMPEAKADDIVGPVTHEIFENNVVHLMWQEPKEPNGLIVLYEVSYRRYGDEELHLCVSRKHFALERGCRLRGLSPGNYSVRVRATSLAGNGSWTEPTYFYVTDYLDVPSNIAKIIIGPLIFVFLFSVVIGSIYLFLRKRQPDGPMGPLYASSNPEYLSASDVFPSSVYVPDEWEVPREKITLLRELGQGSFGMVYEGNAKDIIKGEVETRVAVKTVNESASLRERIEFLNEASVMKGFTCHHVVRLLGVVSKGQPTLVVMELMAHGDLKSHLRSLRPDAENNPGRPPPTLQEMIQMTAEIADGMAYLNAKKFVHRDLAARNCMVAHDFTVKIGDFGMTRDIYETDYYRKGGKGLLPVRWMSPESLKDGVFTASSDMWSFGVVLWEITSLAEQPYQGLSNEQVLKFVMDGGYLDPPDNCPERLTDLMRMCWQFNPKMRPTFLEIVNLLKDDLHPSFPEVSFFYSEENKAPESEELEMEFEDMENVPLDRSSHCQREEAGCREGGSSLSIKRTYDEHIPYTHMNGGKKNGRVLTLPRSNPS
Sequence of Voltage-gated inwardly rectifying potassium channel KCNH2 (Q12809 whole entry): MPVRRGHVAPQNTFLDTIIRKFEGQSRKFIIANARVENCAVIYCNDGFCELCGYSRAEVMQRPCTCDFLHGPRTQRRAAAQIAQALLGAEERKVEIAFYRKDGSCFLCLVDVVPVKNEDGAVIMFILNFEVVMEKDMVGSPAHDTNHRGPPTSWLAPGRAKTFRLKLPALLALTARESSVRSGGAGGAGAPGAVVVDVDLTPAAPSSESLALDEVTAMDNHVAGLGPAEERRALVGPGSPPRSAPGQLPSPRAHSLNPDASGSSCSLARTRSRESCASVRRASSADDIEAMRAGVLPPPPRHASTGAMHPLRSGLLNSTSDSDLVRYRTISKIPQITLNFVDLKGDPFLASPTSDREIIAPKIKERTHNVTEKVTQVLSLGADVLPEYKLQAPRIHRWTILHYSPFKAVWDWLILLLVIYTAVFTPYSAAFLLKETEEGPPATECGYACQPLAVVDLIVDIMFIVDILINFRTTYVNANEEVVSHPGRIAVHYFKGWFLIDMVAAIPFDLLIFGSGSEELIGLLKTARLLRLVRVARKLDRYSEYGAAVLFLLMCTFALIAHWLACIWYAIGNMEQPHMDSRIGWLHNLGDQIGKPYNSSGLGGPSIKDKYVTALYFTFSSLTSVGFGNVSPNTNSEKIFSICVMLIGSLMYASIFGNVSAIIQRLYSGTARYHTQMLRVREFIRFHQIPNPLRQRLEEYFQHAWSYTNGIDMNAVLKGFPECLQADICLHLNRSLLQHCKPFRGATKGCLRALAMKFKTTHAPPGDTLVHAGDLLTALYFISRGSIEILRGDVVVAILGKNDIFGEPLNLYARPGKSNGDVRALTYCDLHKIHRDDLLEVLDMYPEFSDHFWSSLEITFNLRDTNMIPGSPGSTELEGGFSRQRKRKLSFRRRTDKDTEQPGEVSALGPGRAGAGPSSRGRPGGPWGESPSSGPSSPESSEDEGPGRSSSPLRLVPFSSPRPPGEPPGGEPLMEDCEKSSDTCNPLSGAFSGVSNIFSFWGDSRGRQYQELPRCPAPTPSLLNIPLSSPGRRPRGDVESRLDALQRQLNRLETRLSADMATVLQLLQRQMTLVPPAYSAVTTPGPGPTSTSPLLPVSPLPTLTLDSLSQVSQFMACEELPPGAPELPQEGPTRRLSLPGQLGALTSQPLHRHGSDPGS

CCCN1C[C@H](CSC)C[C@@H]2c3cccc4[nH]cc(c34)C[C@H]21 [PERGOLIDE]
Not Active: IC50 (Substance-K receptor) | IC50 (Melanocortin receptor 5) | IC50 [1] | Ki [1] | IC50 [2] | Ki [2] | IC50 [3] | Ki [3] | IC50 (Insulin receptor) | IC50 (Interstitial collagenase)

C1CCC(C(CC2CCCCN2)C2CCCCC2)CC1 (configuration not stated) [PERHEXILINE]
Not Active: IC50 (Substance-K receptor) | IC50 (Melanocortin receptor 5) | IC50 [1] | Ki [1] | IC50 [2] | Ki [2] | IC50 [3] | Ki [3] | IC50 (Insulin receptor) | IC50 (Interstitial collagenase)

CCOc1ccc(NC(C)=O)cc1 [PHENACETIN]
Not Active: IC50 (Substance-K receptor) | IC50 (Melanocortin receptor 5) | IC50 [1] | Ki [1] | IC50 [2] | Ki [2] | IC50 [3] | Ki [3] | IC50 (Insulin receptor) | IC50 (Interstitial collagenase)

CNNCc1ccc(C(=O)NC(C)C)cc1 [PROCARBAZINE]
Not Active: IC50 (Substance-K receptor) | IC50 (Melanocortin receptor 5) | IC50 [1] | Ki [1] | IC50 [2] | Ki [2] | IC50 [3] | Ki [3] | IC50 (Insulin receptor) | IC50 (Interstitial collagenase)

CN(C)CCCN1c2ccccc2Sc2ccccc21 [PROMAZINE]
Not Active: IC50 (Substance-K receptor) | IC50 (Melanocortin receptor 5) | IC50 [1] | Ki [1] | IC50 [2] | Ki [2] | IC50 [3] | Ki [3] | IC50 (Insulin receptor) | IC50 (Interstitial collagenase)

CC(O)CO (configuration not stated) [PROPYLENE GLYCOL]
Not Active: IC50 (Substance-K receptor) | IC50 (Melanocortin receptor 5) | IC50 [1] | Ki [1] | IC50 [2] | Ki [2] | IC50 [3] | Ki [3] | IC50 (Insulin receptor) | IC50 (Interstitial collagenase)

CADMIUM ACETATE
Not Active: IC50 (Substance-K receptor) | Ki (Substance-K receptor) | IC50 (Melanocortin receptor 5) | Ki (Melanocortin receptor 5) | IC50 [1] | Ki [1] | IC50 [2] | Ki [2] | IC50 [3] | Ki [3] | IC50 (Insulin receptor) | Ki (Insulin receptor) | IC50 (Interstitial collagenase) | Ki (Interstitial collagenase)

LEAD (II) ACETATE
Not Active: IC50 (Substance-K receptor) | Ki (Substance-K receptor) | IC50 (Melanocortin receptor 5) | Ki (Melanocortin receptor 5) | IC50 [1] | Ki [1] | IC50 [2] | Ki [2] | IC50 [3] | Ki [3] | IC50 (Insulin receptor) | Ki (Insulin receptor) | IC50 (Interstitial collagenase) | Ki (Interstitial collagenase)

LIPOPOLYSACCHARIDE E. COLI O55:B5
Not Active: IC50 (Substance-K receptor) | Ki (Substance-K receptor) | IC50 (Melanocortin receptor 5) | Ki (Melanocortin receptor 5) | IC50 [1] | Ki [1] | IC50 [2] | Ki [2] | IC50 [3] | Ki [3] | IC50 (Insulin receptor) | Ki (Insulin receptor) | IC50 (Interstitial collagenase) | Ki (Interstitial collagenase)
